Measurements reported in patent US6974791B2, “Endothelial specific targeting” (The University of Pittsburgh, priority 2000, dated 2005).
Entries after “also recorded” stand apart in the source; their conditions may differ. Where no end group is shown, it is not given here.

Experiments:
[1] = system: vessels in human xenograft PC-3 (prostate carcinoma) tumors; experiment: in vivo binding of intravenously injected peptide in PC-3 tumor-bearing mice (fluorescence microscopy of frozen sections); parameters: species or system mouse; settings: for binding to vessels in the tumors (tumor cross-sections): five i.v. (tail vein) injections of 1 ng/mouse at one hour intervals
Method: (§1) Additionally, in vivo experiments with the prototype peptide, SEQ ID NO 3, which stained the brightest in the in vitro experiments described above, were conducted using several different assays as described below. In one in vivo assay, tumor-bearing mice were injected five times intravenously (tail vein) with 1 ng/mouse at one hour intervals. The mice were sacrificed 15 minutes after the final injection, the tumors and other normal tissues (lung, heart, muscle) were taken for fresh frozen sectioning (i.e., embedded in OCT medium and frozen) and for evaluation via fluorescence microscopy. […] Although these peptides were generated from TDEC originating from the murine SCC tumor, SEQ ID NO 3 also bound to the endothelium from a human xenograft model.
The specificity of SEQ ID NO 3 for endothelial vessels is illustrated in FIG. 7. In this experiment, PC-3 tumor-bearing mice were injected (as described above) with positive control poly-L-lysine, negative control SEQ ID NO 8 Pen G7 and peptide SEQ ID NO 3. FIG. 7A, 7B and 7C are micrographs illustrating cross-sections of PC-3 tumor from tumor-bearing mice that were injected with peptides. In each figure, the gray diamond indicates the location of the lumen of the blood vessel.

[2] = system: tumor-derived endothelial cells (TDEC); experiment: in vitro binding of FITC-conjugated peptides to TDEC monolayers (fluorescent microscopy), NIH3T3 as negative control monolayer; assay type: cell-based, mouse; settings: peptide 5 μg/ml overnight at 37° C. in PBS with 10% FCS; TDEC vs NIH3T3 monolayers
Method: Tumors were established by subcutaneous injection of 5×10^6 SCC VII cells per C3H/HeJ mouse. After a tumor had achieved a diameter of 0.5 cm to 1.0 cm and before any evidence of central necrosis, it was removed sterilely, minced, and digested with collagenases and RNAses to yield a single cell suspension. The cells were then stained using antibody for PECAM-1. The stained cells were sorted using automated flow cytometry and the positive cells were cultured as TDECs in Po Media [DMEM supplemented with 20% Sarcoma-180 conditioned media, 10% Fetal Calf Serum, 1% BME vitamin, 1% heparin, and 0.005% endothelial cell growth supplement (Collaborative Research)].
Evidence for specific binding of oligopeptides to TDEC was accomplished as follows. The most frequently repetitive sequences obtained from the 100 clones were used for synthesis of oligopeptides (Sigma Genesis). By conjugating fluorescein isothiocynate ([…]) to the carboxyl termini of peptides, these molecules were tested for in vitro binding with TDECs and NIH3T3 cells (negative control cell line). These peptides contained flanking cysteines so that a disulfide loop may be reformed, thus constraining and mimicking the binding condition of the initial selection process. […]

[3] = system: vessels in murine SCC (squamous cell) tumors; experiment: in vivo binding of intravenously injected peptide in tumor-bearing mice, murine SCC tumor model (fluorescence microscopy of frozen sections); parameters: species or system mouse
Method: as §1

[4] = system: human soft tissue sarcoma and prostate carcinoma tumor sections (endothelium); experiment: triple staining of fresh frozen human tumor sections with FITC-tagged peptide, anti-Factor VIII antibody and nuclear stain; assay type: binding; settings: fresh frozen sections snap fixed in paraformaldehyde
Method: The ability of novel peptide motifs of the present invention to cross-react with tissues from different sources was tested using human samples from a pathologist-diagnosed soft tissue sarcoma and a prostate carcinoma. Fresh frozen tumor sections were snap fixed in paraformaldehyde, and then triple stained for fluorescence microscopic analysis, the results of which are shown in FIG. 8. The staining included: a stain for cell nuclei, and anti-Factor VIII antibody (secondary antibody labeled with Cy3 red fluorescent probe), and peptide SEQ ID NO 3 (tagged with FITC, green upon fluorescence). […] Factor VIII staining is specific for endothelial cells which produce and store the Factor VIII blood factor.

CGGGGGGGC (cysteine pairing not given here) [SEQ ID NO 8 Pep G7, negative control peptide, seven glycine residues flanked by cysteines, reference compound]
binding to vessels in the tumors (tumor cross-sections) [1]: no binding activity

CGGRRLGGC (cysteine pairing not given here) [SEQ ID NO 3]
staining / binding specificity of FITC-labeled peptide for TDEC [2]: brightest staining and specificity for TDEC; also recorded: highest in vitro binding specificity to TDEC | binding to vessels of normal tissues ([3]; murine SCC tumor-bearing mice, lung, heart, muscle, five i.v. injections of 1 ng/mouse): no binding to the vessels of normal tissues | binding to vessels in the tumors ([3]; murine SCC tumor, five i.v. (tail vein) injections of 1 ng/mouse at one hour intervals, sacrifice 15 minutes after final injection): preferential binding | distribution of staining in PC-3 tumor cross-section ([1]; after i.v. injection, FIG. 7C): limited to the blood vessel wall | binding to vessels in the tumors (tumor cross-sections) [1]: preferential binding; also recorded: intense binding to the cells of the vessel | binding to vessels of normal tissues ([1]; lung, heart, muscle, five i.v. injections of 1 ng/mouse): no binding to the vessels of normal tissues | staining of human tumor sections relative to Factor VIII-positive (vascularized) regions [4]: observed primarily in the regions of the tissue that were vascularized

poly-L-lysine [reference compound]
binding to vessels in the tumors (tumor cross-sections) [1]: not only bound to the cells of the blood vessel, but also diffused through the intercellular space

CGGRKLGGC (cysteine pairing not given here) [SEQ ID NO 2]
staining / binding specificity of FITC-labeled peptide for TDEC [2]: preferential staining for TDEC; also recorded: some binding specificity to TDEC
